This note sets out measurements from US20040006236A1, “Diaminopropionic acid derivatives” (priority 1999, published 2004).

Molecules are shown by their SMILES. Where a name gives a salt, the structure may show the parent alone.

In the experiment the target is T1, ICAM-1 binding to immobilized Mac-1 (Homo sapiens, UniProt P05107+P11215).
T1 construct: made in house; host or cells: transfected 293 cells (Mac-1)
T1 sequence (P05107 23-769, other chains not shown): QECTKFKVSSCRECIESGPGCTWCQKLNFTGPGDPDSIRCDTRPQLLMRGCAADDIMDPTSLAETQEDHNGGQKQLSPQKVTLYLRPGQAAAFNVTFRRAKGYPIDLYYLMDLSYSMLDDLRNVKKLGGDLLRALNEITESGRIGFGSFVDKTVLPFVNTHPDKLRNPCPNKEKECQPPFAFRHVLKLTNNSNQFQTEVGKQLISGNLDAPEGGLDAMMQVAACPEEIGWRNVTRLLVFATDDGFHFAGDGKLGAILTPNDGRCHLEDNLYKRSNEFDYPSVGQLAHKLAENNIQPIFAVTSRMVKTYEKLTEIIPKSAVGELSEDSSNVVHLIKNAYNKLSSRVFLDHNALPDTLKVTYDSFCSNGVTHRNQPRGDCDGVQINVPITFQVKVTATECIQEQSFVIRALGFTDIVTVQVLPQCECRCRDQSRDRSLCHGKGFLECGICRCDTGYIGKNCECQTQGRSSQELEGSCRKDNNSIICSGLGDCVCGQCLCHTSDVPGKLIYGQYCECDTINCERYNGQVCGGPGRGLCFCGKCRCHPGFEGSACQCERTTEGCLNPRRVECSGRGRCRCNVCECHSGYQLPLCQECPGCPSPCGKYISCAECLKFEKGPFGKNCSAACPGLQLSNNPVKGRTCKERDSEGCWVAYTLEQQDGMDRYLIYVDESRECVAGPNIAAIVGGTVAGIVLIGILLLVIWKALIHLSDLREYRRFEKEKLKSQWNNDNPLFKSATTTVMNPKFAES
The experiment is described as follows: Mac-1/ICAM-1 screening assay (solid-phase ELISA). Conditions: read-out: Mac-1/ICAM-1 Protein-Protein Assay IC50. The method, boiled down: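 Competitive solid-phase ELISA: membrane Mac-1 from transfected 293 cells coated at 3 μg/mL in 20 mM Hepes pH 7.2/0.14 M NaCl/1 mM MnCl2; compounds (0.12 nM-20 μM, 1:4 series) plus 5dICAM-Ig (40 μg/mL, added) 2 h at 37° C. Bound ICAM-Ig detected with HRP anti-human IgG Fc, TMB, A450; IC50 reported.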
As to `NCCCC[C@H](N)C(=O)NC[C@H](NC(=O)c1ccc(C(=O)NCc2cccc(O)c2)cc1Cl)C(=O)O` [Example 198], the IC50 stood at 48 nM.
To `N[C@@H](Cc1ccccc1)C(=O)NC[C@H](NC(=O)c1ccc(C(=O)NCc2cccc(O)c2)cc1Cl)C(=O)O` [Example 199] belongs 36 nM; to `NC(=O)C[C@H](N)C(=O)NC[C@H](NC(=O)c1ccc(C(=O)NCc2cccc(O)c2)cc1Cl)C(=O)O` [Example 200], 33 nM; to `N[C@@H](Cc1c[nH]c2ccccc12)C(=O)NC[C@H](NC(=O)c1ccc(C(=O)NCc2cccc(O)c2)cc1Cl)C(=O)O` [Example 201], 49 nM.
To `N[C@@H](CCC(=O)NC[C@H](NC(=O)c1ccc(C(=O)NCc2cccc(O)c2)cc1Cl)C(=O)O)C(=O)O` [Example 202] belongs 37 nM; to `O=C(NC[C@H](NC(=O)c1c(Cl)cccc1Cl)C(=O)O)c1ccccc1` [Example 219], 319 nM; to `O=C(NC[C@H](NC(=O)c1c(Cl)cccc1Cl)C(=O)O)c1ccc(Br)s1` [Example 223], 82 nM.
To `O=C(NC[C@H](NC(=O)c1c(F)cccc1Cl)C(=O)O)c1ccc(Br)s1` [Example 224] belongs 377 nM; to `O=C(NC[C@H](NC(=O)c1c(F)cccc1Cl)C(=O)O)c1ccc2[nH]nnc2c1` [Example 226], 273 nM.
For the compound `Cc1nnsc1C(=O)NC[C@H](NC(=O)c1ccc(C(=O)NCc2cccc(O)c2)cc1Cl)C(=O)O` [Example 255], the IC50 was 41 nM.
In the case of `COc1c(C(=O)NC[C@H](NC(=O)c2ccc(C(=O)NCc3cccc(O)c3)cc2Cl)C(=O)O)csc1Cl` [Example 258, N-[2-chloro-4-[[[(3-hydroxyphenyl)methyl]amino]carbonyl]benzoyl]-3-(5-chloro-4-methoxythiophene-3-carbonyl)amino-L-alanine], the IC50 stood at 26 nM.
As for `NC1(C(=O)NC[C@H](NC(=O)c2ccc(C(=O)NCc3cccc(O)c3)cc2Cl)C(=O)O)CCCC1` [Example 263], the IC50 amounted to 27 nM.
To `N[C@H]1CC[C@@H](C(=O)NC[C@H](NC(=O)c2ccc(C(=O)NCc3cccc(O)c3)cc2Cl)C(=O)O)CC1` [Example 264] belongs 25 nM; to `Nc1cccn(CC(=O)NC[C@H](NC(=O)c2ccc(C(=O)NCc3cccc(O)c3)cc2Cl)C(=O)O)c1=O` [Example 266], 306 nM; to `O=C(O)c1cccc(C(=O)NC[C@H](NC(=O)c2ccc(C(=O)NCc3cccc(O)c3)cc2Cl)C(=O)O)c1` [Example 297], 81 nM.
The value for `O=C(O)CCCC(=O)NC[C@H](NC(=O)c1ccc(C(=O)NCc2cccc(O)c2)cc1Cl)C(=O)O` [Example 298] was 298 nM; that for `O=C(NCc1cccc(O)c1)c1ccc(C(=O)N[C@@H](CNC(=O)c2cccs2)C(=O)O)c(Cl)c1` [Example 305, N-[2-chloro-4-[[[(3-hydroxyphenyl)methyl]amino]carbonyl]benzoyl]-3-(thiophene-2-carbonyl)amino-L-alanine, sodium salt] was 19 nM.
Consider `O=C(NCc1cccc2[nH]ccc12)c1ccc(C(=O)N[C@@H](CNC(=O)c2ccoc2)C(=O)O)c(Cl)c1` [Example 316], for which the IC50 was 24 nM.
To `Cc1ccc(C(=O)NC[C@H](NC(=O)c2ccc(C(=O)NCc3cccc4[nH]ccc34)cc2Cl)C(=O)O)s1` [Example 317] belongs 36 nM; to `O=C(NCc1cccc2c1CCN2)c1ccc(C(=O)N[C@@H](CNC(=O)c2cccs2)C(=O)O)c(Cl)c1` [Example 318, 3-(thiophene-2-carbonyl)amino-N-[2-chloro-4-[[(2,3-dihydro-1H-indol-4-ylmethyl)amino]carbonyl]benzoyl]-L-alanine], 98 nM.
To `O=C(CCc1cccc(O)c1)c1ccc(C(=O)N[C@@H](CNC(=O)c2cccs2)C(=O)O)c(Cl)c1` [Example 319, N-[2-chloro-4-[1-oxo-3-(3-hydroxyphenyl)propyl]benzoyl]-3-(thiophene-2-carbonyl)amino-L-alanine] belongs 43 nM.
